Active and inactive are the calls of the source. The calls are words filed in the database; no cut-off is given here.
What was measured:
[1] = Observed clearance in ICR mouse at 1 mg/kg, iv measured for 24 hrs by LC-MS/MS analysis; format: ADME, organism-based; conditions: in vivo
KMS-11 [2] = test: Antiproliferative activity against human KMS-11 cells assessed as inhibition of cell growth incubated for 6 days by CCK-8 assay; format: functional, cell-based; conditions: KMS-11, 144 h
[3] = Antiproliferative activity against human MINO cells assessed as inhibition of cell growth incubated for 6 days by CCK-8 assay; format: functional, cell-based; conditions: 144 h
KMS-11 [4] = test: Modulation of FoxO signaling pathway in human KMS-11 cells at 1 uM incubated for 48 hrs by RNA-Seq analysis; format: cell-based; conditions: filed as modulator
KMS-11 [5] = test: Induction of apoptosis in human KMS-11 cells assessed as live cells at 0.5 uM incubated for 72 hrs by Annexin V-FITC/PI staining based flow cytometry analysis (reference value: 83.1%); format: functional
[6] = target: Histone-lysine N-methyltransferase NSD2 (Homo sapiens) (UniProt O96028); test: Binding affinity to human recombinant NSD2 (941 to 1240 residues) at 200 uM by saturation transfer difference based NMR analysis
Sequence of Histone-lysine N-methyltransferase NSD2 (Homo sapiens) (O96028 whole entry, the tested form may be a part): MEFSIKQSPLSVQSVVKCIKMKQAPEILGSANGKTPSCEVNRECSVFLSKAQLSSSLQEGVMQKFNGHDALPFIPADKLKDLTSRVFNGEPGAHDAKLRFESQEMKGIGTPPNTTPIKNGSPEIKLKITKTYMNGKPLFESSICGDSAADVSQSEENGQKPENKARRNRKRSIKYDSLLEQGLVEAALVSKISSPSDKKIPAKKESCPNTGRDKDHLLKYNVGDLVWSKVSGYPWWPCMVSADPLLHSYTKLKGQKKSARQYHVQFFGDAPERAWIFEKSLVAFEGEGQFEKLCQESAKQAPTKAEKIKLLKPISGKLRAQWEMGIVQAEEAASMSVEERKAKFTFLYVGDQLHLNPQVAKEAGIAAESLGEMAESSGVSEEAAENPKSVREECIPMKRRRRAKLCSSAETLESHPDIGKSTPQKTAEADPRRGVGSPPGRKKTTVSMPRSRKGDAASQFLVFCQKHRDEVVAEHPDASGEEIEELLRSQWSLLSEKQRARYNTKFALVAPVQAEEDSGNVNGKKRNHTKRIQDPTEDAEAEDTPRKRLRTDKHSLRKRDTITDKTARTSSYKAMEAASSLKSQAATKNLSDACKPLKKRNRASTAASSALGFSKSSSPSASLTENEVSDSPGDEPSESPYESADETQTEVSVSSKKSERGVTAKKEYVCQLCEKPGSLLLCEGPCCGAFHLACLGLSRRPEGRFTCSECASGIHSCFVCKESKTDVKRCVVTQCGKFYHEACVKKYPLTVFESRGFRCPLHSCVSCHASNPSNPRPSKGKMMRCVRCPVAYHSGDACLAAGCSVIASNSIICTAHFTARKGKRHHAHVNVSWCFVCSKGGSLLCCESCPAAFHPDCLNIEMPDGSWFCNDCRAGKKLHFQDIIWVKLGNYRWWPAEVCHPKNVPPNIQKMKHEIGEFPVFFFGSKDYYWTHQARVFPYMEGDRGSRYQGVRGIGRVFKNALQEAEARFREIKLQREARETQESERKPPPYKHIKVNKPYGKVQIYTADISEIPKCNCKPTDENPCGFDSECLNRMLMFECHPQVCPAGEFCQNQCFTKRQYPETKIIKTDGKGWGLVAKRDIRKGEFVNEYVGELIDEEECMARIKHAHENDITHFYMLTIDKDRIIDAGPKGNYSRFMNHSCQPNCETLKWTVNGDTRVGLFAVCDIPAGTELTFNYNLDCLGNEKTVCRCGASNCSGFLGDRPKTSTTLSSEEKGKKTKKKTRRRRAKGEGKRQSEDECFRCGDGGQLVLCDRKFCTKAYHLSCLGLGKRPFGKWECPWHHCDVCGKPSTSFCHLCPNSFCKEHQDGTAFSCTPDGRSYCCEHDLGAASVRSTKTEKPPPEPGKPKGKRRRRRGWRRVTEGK

[7] = target: Basement membrane-specific heparan sulfate proteoglycan core protein (Homo sapiens) (UniProt P98160); test: Inhibition of HSPG2 transcriptional activation in human KMS-11 cells assessed as reduction in HSPG2 mRNA expression at 0.5 uM by qRT-PCR analysis; format: cell-based
[8] = target: Protein arginine N-methyltransferase 1 (Homo sapiens, UniProt Q99873); test: Inhibition of PRMT1 (unknown origin) by AlphaLISA assay
Sequence of Protein arginine N-methyltransferase 1 (Q99873 whole entry): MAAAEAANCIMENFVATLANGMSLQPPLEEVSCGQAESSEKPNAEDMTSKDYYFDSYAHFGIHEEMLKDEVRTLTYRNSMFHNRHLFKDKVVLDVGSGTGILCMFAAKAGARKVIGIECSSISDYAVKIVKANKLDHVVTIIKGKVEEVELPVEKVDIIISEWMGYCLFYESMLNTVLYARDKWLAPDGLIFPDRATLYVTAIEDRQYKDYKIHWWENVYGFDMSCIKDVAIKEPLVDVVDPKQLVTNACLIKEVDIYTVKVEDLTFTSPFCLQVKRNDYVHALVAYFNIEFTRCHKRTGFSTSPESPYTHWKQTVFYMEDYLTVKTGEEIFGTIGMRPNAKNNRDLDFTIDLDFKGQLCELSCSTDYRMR

[9] = Half life in ICR mouse at 1 mg/kg, iv measured for 24 hrs by LC-MS/MS analysis; format: ADME, organism-based; conditions: in vivo
KMS-11 [10] = test: Induction of apoptosis in human KMS-11 cells assessed as early apoptotic cells at 0.5 uM incubated for 72 hrs by Annexin V-FITC/PI staining based flow cytometry analysis (reference value: 3.96%); format: functional
[11] = target: Ras-related protein R-Ras2 (Homo sapiens) (UniProt P62070); test: Inhibition of RRAS2 transcriptional activation in human KMS-11 cells assessed as reduction in H3K36me2 level in promoter region by ChIP-qPCR analysis; format: cell-based
Sequence of Ras-related protein R-Ras2 (Homo sapiens) (P62070 whole entry): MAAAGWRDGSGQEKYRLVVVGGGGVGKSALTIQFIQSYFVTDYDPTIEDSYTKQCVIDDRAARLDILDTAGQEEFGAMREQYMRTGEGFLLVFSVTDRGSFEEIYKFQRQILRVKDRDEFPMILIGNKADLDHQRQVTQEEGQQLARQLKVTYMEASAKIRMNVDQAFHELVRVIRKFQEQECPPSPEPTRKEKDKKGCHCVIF

U2932 = test: Antiproliferative activity against human U2932 cells assessed as inhibition of cell growth incubated for 6 days by CCK-8 assay; format: functional, cell-based; conditions: U2932, 144 h
[12] = target: Histone-lysine N-methyltransferase 2D (Homo sapiens, UniProt O14686); test: Inhibition of MLL2 (unknown origin) using SAM as substrate preincubated for 10 mins followed by substrate addition and measured after 4 hrs by HTRF analysis
[13] = target: Hepatocyte growth factor receptor (Homo sapiens) (UniProt P08581); test: Inhibition of MET transcriptional activation in human KMS-11 cells assessed as reduction in MET mRNA expression at 0.5 uM by qRT-PCR analysis; format: cell-based
Sequence of Hepatocyte growth factor receptor (Homo sapiens) (P08581 whole entry): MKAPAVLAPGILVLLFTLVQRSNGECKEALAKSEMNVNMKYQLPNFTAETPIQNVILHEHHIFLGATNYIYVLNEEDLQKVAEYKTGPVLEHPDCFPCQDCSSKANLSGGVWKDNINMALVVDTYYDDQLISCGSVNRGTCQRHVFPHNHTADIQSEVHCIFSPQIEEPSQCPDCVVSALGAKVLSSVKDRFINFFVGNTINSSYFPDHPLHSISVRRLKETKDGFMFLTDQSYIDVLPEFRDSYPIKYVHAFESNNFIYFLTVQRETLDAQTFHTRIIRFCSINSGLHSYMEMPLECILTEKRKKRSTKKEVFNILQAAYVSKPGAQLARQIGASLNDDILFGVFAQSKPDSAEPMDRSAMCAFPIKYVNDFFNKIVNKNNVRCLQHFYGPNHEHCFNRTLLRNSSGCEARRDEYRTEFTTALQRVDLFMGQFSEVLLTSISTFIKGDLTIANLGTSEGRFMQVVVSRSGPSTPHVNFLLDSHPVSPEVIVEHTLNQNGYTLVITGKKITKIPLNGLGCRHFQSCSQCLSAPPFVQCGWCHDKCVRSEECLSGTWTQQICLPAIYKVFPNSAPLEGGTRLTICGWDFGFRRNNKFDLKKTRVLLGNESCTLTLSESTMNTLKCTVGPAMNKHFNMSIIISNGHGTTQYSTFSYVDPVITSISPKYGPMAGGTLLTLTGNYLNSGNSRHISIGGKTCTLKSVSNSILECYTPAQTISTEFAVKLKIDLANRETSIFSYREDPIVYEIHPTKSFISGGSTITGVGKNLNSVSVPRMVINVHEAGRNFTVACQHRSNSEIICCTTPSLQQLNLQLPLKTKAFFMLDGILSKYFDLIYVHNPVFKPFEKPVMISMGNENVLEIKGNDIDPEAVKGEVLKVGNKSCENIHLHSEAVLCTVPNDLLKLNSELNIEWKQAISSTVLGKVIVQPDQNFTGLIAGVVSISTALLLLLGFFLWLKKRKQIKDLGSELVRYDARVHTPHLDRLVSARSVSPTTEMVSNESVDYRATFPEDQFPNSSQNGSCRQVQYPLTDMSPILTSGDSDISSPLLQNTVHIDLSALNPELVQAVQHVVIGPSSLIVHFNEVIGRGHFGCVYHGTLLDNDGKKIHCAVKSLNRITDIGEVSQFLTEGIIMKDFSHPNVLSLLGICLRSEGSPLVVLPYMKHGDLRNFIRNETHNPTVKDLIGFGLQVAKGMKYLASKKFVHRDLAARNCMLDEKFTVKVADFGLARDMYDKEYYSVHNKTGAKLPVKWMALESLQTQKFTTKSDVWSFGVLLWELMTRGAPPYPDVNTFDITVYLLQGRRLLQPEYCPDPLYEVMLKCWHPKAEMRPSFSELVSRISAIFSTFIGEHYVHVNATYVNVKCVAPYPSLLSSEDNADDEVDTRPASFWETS

[14] = target: Ras-related protein R-Ras2 (Homo sapiens) (UniProt P62070); test: Inhibition of RRAS2 transcriptional activation in human KMS-11 cells assessed as reduction in RRAS2 mRNA expression at 0.5 uM by qRT-PCR analysis; format: cell-based
KMS-11 [15] = test: Induction of apoptosis in human KMS-11 cells assessed as live cells at 0.2 uM incubated for 72 hrs by Annexin V-FITC/PI staining based flow cytometry analysis (reference value: 83.1%); format: functional
U-937 = test: Antiproliferative activity against human U-937 cells harboring wild type NSD2 assessed as inhibition of cell growth incubated for 6 days by CCK-8 assay; format: functional, cell-based; conditions: U-937, 144 h
[16] = Cmax in ICR mouse at 3 mg/kg, po measured for 24 hrs by LC-MS/MS analysis; format: ADME, organism-based; set-up: dose 3 mg/kg, time 24 hrs, route po; conditions: in vivo
KMS-11 [17] = test: Antitumor activity against human KMS-11 cells xenografted in SCID mouse assessed as tumor growth inhibition at 150 mg/kg, po administered daily for 21 days and measured every 3 days relative to control; format: functional; conditions: KMS-11, 504 h, time 21 day, read-out: TGI
OPM-2 = test: Antiproliferative activity against NSD2 translocated human OPM-2 cells assessed as inhibition of cell growth incubated for 6 days by CCK-8 assay; format: functional, cell-based; conditions: OPM-2, 144 h
[18] = Toxicity in SCID mouse xenografted with human KMS-11 cells assessed as adverse effects at 75 to 150 mg/kg, po administered daily for 21 days and measured every 3 days; format: organism-based; conditions: in vivo, 504 h, dose 75-150 mg/kg, time 21 day
[19] = Tmax in ICR mouse at 3 mg/kg, po measured for 24 hrs by LC-MS/MS analysis; format: ADME, organism-based; conditions: in vivo
[20] = Toxicity in SCID mouse xenografted with human KMS-11 cells assessed as body weight loss at 75 to 150 mg/kg, po administered daily for 21 days and measured every 3 days; format: organism-based; conditions: in vivo, 504 h, dose 75-150 mg/kg, time 21 day

CC#CC(=O)NC12CC(NC3=C(Cl)C(=O)c4ncccc4C3=O)(C1)C2
clearance [1]: 3.8 mL/min/kg
IC50 (KMS-11 [2]): 0.27 µM
IC50 [3]: 9.9 µM
Activity (KMS-11 [4]): Active
Activity (KMS-11 [5]): 63.8%
Activity [6]: Active
inhibition [7]: Active
IC50 [8]: > 10 µM
half-life [9]: 8.53 h
Activity (KMS-11 [10]): 14.1%
inhibition [11]: Active
IC50 (U2932): 9.11 µM
IC50 [12]: > 10 µM
inhibition [13]: Active
inhibition [14]: Active
Activity (KMS-11 [15]): 81.3%
IC50 (U-937): 4.9 µM
Cmax [16]: 4780 ng/mL
inhibition in vivo at 150 mg/kg (KMS-11 [17]): 58.4%
IC50 (OPM-2): 2.09 µM
Activity [18]: Non-Toxic
Tmax [19]: 1.5 h
Activity [20]: Non-Toxic

Reference: ChEMBL document CHEMBL5316318, “Structural Modification and Pharmacological Evaluation of Substituted Quinoline-5,8-diones as Potent NSD2 Inhibitors” (J Med Chem, 2023)
